Test results taken from patent publication US4288590A, “7 -[Dα-(4-Hydroxy-1,5-naphthyridine-3-carboxamido)-α-arylacetam ido]-3-(N,N-dimethyl-aminomethylpyridinium) methyl-3-cephem-4-carboxylates” (Bristol-Myers Company, priority 1980, dated 1981).
Values after ≈ are worked out from the molar mass of the structure shown. Where a name gives a salt, the structure may show the parent alone. Read-outs that look alike come from different tables or passages of the source.

Tests used:
Assay in all cases: MIC, serial two-fold agar dilution (Table 1)
Format in all cases: cell-based
E. cloacae A9656 = settings: Enterobacter cloacae, Mueller-Hinton agar
Description: (§1) Minimum inhibitory concentrations (MIC) of BB-S 651, BB-S 669 and BB-S 676 were determined by serial two-fold agar dilution method using Steers' apparatus on Mueller-Hinton agar plate against 15 test organisms for primary screening as shown in Table 1.

E. coli A15148 = settings: Escherichia coli; E. coli A15148, cephalothin-resistant; Mueller-Hinton agar
Description: as §1

E. coli A15164 = settings: Escherichia coli; E. coli A15164, cephalothin-resistant; Mueller-Hinton agar
Description: as §1

E. coli A9660 = settings: Escherichia coli; E. coli A9660, cephalothin-sensitive; Mueller-Hinton agar
Description: as §1

E. coli Juhl A15119 = settings: Escherichia coli, JUHLA15119; E. coli Juhl A15119, cephalothin-sensitive; Mueller-Hinton agar
Description: as §1

Ps. aeruginosa A15150 = settings: Pseudomonas aeruginosa, Mueller-Hinton agar
Description: as §1

Ps. aeruginosa A20229 = settings: Pseudomonas aeruginosa, Mueller-Hinton agar
Description: as §1

Ps. aeruginosa A20717 = settings: Pseudomonas aeruginosa, Mueller-Hinton agar
Description: as §1

Ps. aeruginosa A20718 = settings: Pseudomonas aeruginosa, Mueller-Hinton agar
Description: as §1

Ps. aeruginosa A9843 = settings: Pseudomonas aeruginosa, Mueller-Hinton agar
Description: as §1

S. aureus #193 = settings: Staphylococcus aureus
Description: as §1

S. aureus 209P A9497 = settings: Staphylococcus aureus
Description: as §1

[1] = tested on: S. aureus BX-1633-2 A9606; settings: Staphylococcus aureus, BX16332A9606
Description: as §1

S. aureus Smith A9537 = settings: Staphylococcus aureus, SMITHA9537, Mueller-Hinton agar
Description: as §1

S. marcescens A20019 = settings: Serratia marcescens, Mueller-Hinton agar
Description: as §1

[2] = S. aureus 209P A9497, Mueller-Hinton agar, read-out: MIC
[3] = S. aureus #193, penicillinase-producing, Mueller-Hinton agar, read-out: MIC
[4] = S. aureus BX-1633-2 A9606, penicillinase-producing, Mueller-Hinton agar, read-out: MIC

Compound	MIC (E. cloacae A9656) [µg/mL]	MIC (E. coli A15148) [µg/mL]	MIC (E. coli A15164) [µg/mL]	MIC (E. coli A9660) [µg/mL]	MIC (E. coli Juhl A15119) [µg/mL]	MIC (Ps. aeruginosa A15150) [µg/mL]	MIC (Ps. aeruginosa A20229) [µg/mL]	MIC (Ps. aeruginosa A20717) [µg/mL]	MIC (Ps. aeruginosa A20718) [µg/mL]	MIC (Ps. aeruginosa A9843) [µg/mL]	MIC (S. aureus #193) [µg/mL]	MIC (S. aureus 209P A9497; [2]) [µg/mL]	MIC [1] [µg/mL]	MIC (S. aureus Smith A9537) [µg/mL]	MIC (S. marcescens A20019) [µg/mL]	MIC (S. aureus #193; [3]) [µg/mL]	MIC (S. aureus 209P A9497; 209P) [µg/mL]	MIC [1, 4] [µg/mL]
CC1(C)S[C@@H]2[C@H](NC(=O)C(C(=O)O)c3ccccc3)C(=O)N2[C@H]1C(=O)O (stereo partly drawn) [Carbenicillin, reference compound]	3.1 (≈ 8.19 µM)	3.1 (≈ 8.19 µM)	6.3 (≈ 16.6 µM)	0.8 (≈ 2.11 µM)	3.1 (≈ 8.19 µM)	25 (≈ 66.1 µM)	50 (≈ 132 µM)	> 100	25 (≈ 66.1 µM)	50 (≈ 132 µM)	12.5 (≈ 33 µM)	0.2 (≈ 0.529 µM)	12.5 (≈ 33 µM)	0.2 (≈ 0.529 µM)	3.1 (≈ 8.19 µM)	–	–	–
CN(C)Cc1cc[n+](CC2=C(C(=O)[O-])N3C(=O)C(NC(=O)[C@H](NC(=O)c4cnc5cccnc5c4O)c4ccc(O)cc4)C3SC2)cc1 (stereo partly drawn) [BB-S 669, 7-[D-α-(4-Hydroxy-1,5-naphthyridine-3-carboxamido)-α-(4-hydroxyphenyl)acetamido]-3-(4-N,N-dimethylaminomethylpyridinium)methyl-3-cephem-4-carboxylate Hydrochloride]	3.1	0.8	6.3	0.8	1.6	0.8	1.6	3.1	0.8	1.6	–	–	–	6.3	12.5	25	3.1	25
CN(C)Cc1ccc[n+](CC2=C(C(=O)[O-])N3C(=O)C(NC(=O)[C@H](NC(=O)c4cnc5cccnc5c4O)c4ccccc4)C3SC2)c1 (stereo partly drawn) [BB-S 676, 7-[D-α-(4-Hydroxy-1,5-naphthyridine-3-carboxamido)α-phenylacetamido]-3-(3-N,N-dimethylaminomethylpyridinium)methyl-3-cephem-4-carboxylateHydrochloride]	50	6.3	50	3.1	12.5	1.6	3.1	6.3	1.6	3.1	–	1.6	–	3.1	50	6.3	–	6.3
